Results reported in patent US20040048318A1, “Method for screening anti-proliferative compounds and method for inhibiting tumor growth” (priority 2003, published 2004).

Columns and labels:
methionine 14-3-3γ [1] = assay: IEF-immunoblotting for induction of methionine 14-3-3γ in H1299 cells; type: cell-based, human
Method: (§1) H1299, a non-small cell lung carcinoma which is obtained from the American Type Culture Collection (Rockville, Md.), is cultivated in PRMI1640 supplemented with 10% fetal calf serum and glutamine, penicillin, streptomycin, and gentamycin. The H1299 cells are grown to about 70% confluenc and then cultivated with or without 25 μM bengamide. Samples of the cells are taken at 8, 16, 24 and 48 hours. At the end of the culture periods, the sample cells are washed with PBS (phosphate buffered solution, available from Sigma Chemical) and collected by scraping and centrifugation. The cell pellet is dissolved in 4 volumes of Rabilloud buffer. Rabilloud buffer contained 4% non-ionic detergent CHAPS, 7 M urea, 2 M thiourea, 10 mg/ml dithiothreitol and 1% pharmalytes (pH 3-10), which buffer is disclosed in Electrophoresis, 1997 Mar-Apr., 18 (3-4): 307-16, Rabilloud et al., Improvement of the Solubilization of Proteins in Two-dimensional electrophoresis with immobilized pH Gradients. The cell concentration was between 2 and 2.5 E7/ml.
(§2) Immobilized pH-gradient (IPG) gels (Immobiline®, Amersham Pharmacia Biotech) are re-swollen for at least 4 hours in Rabilloud buffer without pharmalytes. Samples (1 μl of cell extract) are directly loaded at a distance of about 2 cm from the anode to the surface of the gel using a comb. Focusing is carried out at 200 V for 2 hours and at 1000 or 3500 V until a 25000 Vh is reached. The temperature is maintained at 15° C. After focusing, the gel is fixed in 12% TCA-3.5% sulfosalicylic acid for 1 hour and washed in water for 1 hour. The washed gel is blotted by placing the gel on a flat surface and covering with a sheet of PVDF-membrane which was sequentially soaked in Isopropanol, water and a guanidinium chloride solution of […] Tris-HCl at pH 7.5, 4 M guanidinium chloride, 1 mg/ml DTT. The membrane is covered with 4 layers of filter paper sheets which was soaked with the guanidinium chloride solution. A polyethylene film is placed over the filter sheets and a 3 kg weight having a 14 cm by 14 cm flat surface is placed over the polyethylene film to ensure a good contact between the layers. The gel layers are undisturbed to allow transfer for overnight, then the membrane is washed with water and treated with a solution of 0.5% formaldehyde in PBS for 30 minutes. The membrane is incubated with 2% glycine in PBS at pH 7 for 30 minutes.
The membrane is then blocked with 0.05% Tween 20-1% skimmed dry milk powder in PBS for 1 hour. Commercially available antibodies against 14-3-3 (Santa Cruz) are applied for 4 hours in blocking buffer. Chemiluminescence detection (ECL-kit, Amersham Pharmacia Biotech) is carried out using the secondary antibodies supplied with the kit.

methionine 14-3-3γ [2] = assay: IEF-immunoblotting for induction of methionine 14-3-3γ in A549 (lung carcinoma) cells; type: cell-based, human; settings: 200 nM LAF389, within 18 hours
Method: [The procedure below names another cell line; the source says it served here with some conditions changed.] as §1
(§3) Immobilized pH-gradient (IPG) gels (Immobiline®, Amersham Pharmacia Biotech) are re-swollen for at least 4 hours in Rabilloud buffer without pharmalytes. Samples (1 μl of cell extract) are directly loaded at a distance of about 2 cm from the anode to the surface of the gel using a comb. […]

methionine 14-3-3γ [3] = assay: IEF-immunoblotting of white blood cell fraction from treated rats for methionine 14-3-3γ; type: in vivo; settings: 3 mg/kg three times for a day, rested 7 days, dosed three times again, blood collected after one day rest
Method: One group of laboratory rats is treated with the bengamide analogue LAF389 of Example 2 three times for a day at the 3 mg/kg dosage, then rested for 7 days. Th rats are again dosed three times the following day with the dosage. They are rested for one day and blood samples are collected. Peripheral blood is collected by a percoll gradient centrifugation protocol. The white blood cell fraction including platelets is recovered and the pellet is lysed in IEF sample buffer. The bio-samples are analyzed with the IEF-immunoblotting analysis. Control bio-samples are obtained from a group of rats that are not treated with the bengamide analogue.

methionine 14-3-3γ [4] = assay: IEF-immunoblotting for induction of methionine 14-3-3γ in U20S (osteosarcoma) cells; type: cell-based, human; settings: for expression of the altered 14-3-3γ isoform: U20S cells treated with the compound (summary statement, no concentration given)
Method: [The procedure below names another cell line; the source says it served here with some conditions changed.] as §1
as §2, with “A polyethylene film is placed over the filter sheets and a 3 kg weight having a 14 cm by 14 cm flat surface is placed over the polyethylene film to ensure a good contact between the layers. The gel layers are undisturbed to allow transfer for overnight, then the membrane is washed with water and treated with a solution of 0.5% formaldehyde in PBS for 30 minutes. The membrane is incubated with 2% glycine in PBS at pH 7 for 30 minutes.” left out

methionine 14-3-3γ [5] = assay: IEF-immunoblotting for induction of methionine 14-3-3γ in MDA-MB435 (mammary carcinoma) cells; type: cell-based, human; settings: 200 nM LAF389, within 18 hours
Method: [The procedure below names another cell line; the source says it served here with some conditions changed.] as §1, §3

Compound: CO[C@@H]1[C@H](OC(=O)NC(=O)CCl)CC[C@]2(CO2)[C@H]1[C@@]1(C)O[C@@H]1CC=C(C)C [AGM-1470]
- induction of methionine 14-3-3γ (IEF-immunoblotting) (methionine 14-3-3γ [1]; AGM-1470 in place of bengamide): induce methionine 14-3-3γ

Compound: COC(C(=O)NC1CCC(OC(=O)C2CCCCC2)CNC1=O)C(O)C(O)C(O)/C=C/C(C)(C)C (stereo not shown) [LAF389]
- induction/accumulation of methionine 14-3-3γ (IEF-immunoblotting) (methionine 14-3-3γ [1]; 200 nM LAF389, samples at 8, 16, 24 and 48 hours): induce and accumulate the protein which is reactive to the 14-3-3γ antibody
- induction of methionine 14-3-3γ (IEF-immunoblotting) (methionine 14-3-3γ [1]; 18 hours, LAF389 200 nM, 5-fluorouracil 20 μg/ml, epothilone 500 nM, doxorubicin 1 μg/ml, stauosporin 1 μM): induced methionine 14-3-3γ
- induction of methionine 14-3-3γ (IEF-immunoblotting) (methionine 14-3-3γ [2]): induce methionine 14-3-3γ within 18 hours
- induction and accumulation of methionine 14-3-3γ in white blood cell fraction (methionine 14-3-3γ [3]): induce and accumulate methionine 14-3-3γ
- induction of methionine 14-3-3γ (IEF-immunoblotting) (methionine 14-3-3γ [4]; U20S cells, 200 nM LAF389, within 18 hours): induce methionine 14-3-3γ within 18 hours
- induction of methionine 14-3-3γ (IEF-immunoblotting) (methionine 14-3-3γ [5]): induce methionine 14-3-3γ within 18 hours

Compound: CO[C@@H]1[C@H](OC(=O)/C=C/C=C/C=C/C=C/C(=O)O)CC[C@]2(CO2)[C@H]1[C@@]1(C)O[C@@H]1CC=C(C)C [fumagillin]
- expression of the altered 14-3-3γ isoform (methionine 14-3-3γ [4]): express the altered 14-3-3γ isoform

Compound: bengamide
- induction/accumulation of methionine 14-3-3γ (IEF-immunoblotting) (methionine 14-3-3γ [1]; 25 μM bengamide, samples at 8, 16, 24 and 48 hours): gradually accumulate over the 48 hour culture period the protein that reacts with the 14-3-3γ specific antibody
- expression of the altered 14-3-3γ isoform (methionine 14-3-3γ [4]): express the altered 14-3-3γ isoform
